Test results: paper PMC8201324, “Pyrazoles and Pyrazolines as Anti-Inflammatory Agents” (Molecules, 2021)
Marks after values point to notes of the source that are not given here.

How the values were obtained:
[1] = Inhibition of linoleic acid lipid peroxidation (AAPH); assay type: biochemical
Method: For the lipid peroxidation study, 2,2′-azobis(2-amidinopropane) hydrochloride (AAPH) was used for the generation of peroxyl radicals. The generation of the conjugated diene hydroperoxide derived from the oxidation of sodium linoleate in an aqueous solution was recorded at 234 nm. The compounds presented high anti-lipid peroxidation activity (78–100%) (Table 4). Pyrazolines 2a and 2b present lower anti-lipid peroxidation activity (89% and 78% respectively).
A stock solution (1% DMSO in the appropriate buffer with the tested compound diluted under sonication) was prepared for the in vitro assays from which several dilutions were made with the appropriate buffer. The in vitro experiments were performed at least in triplicate, and the standard deviation of absorbance was less than 10% of the mean.
AAPH was used as free radical initiator of alkylperoxyl radicals. The ability of the compounds to prevent the oxidation of linoleic acid sodium salt from alkylperoxyl radicals was recorded at 234 nm. Trolox was used as reference (93%) (Table 4).

[2] = Experimental determination of lipophilicity as RM values (RP-TLC); assay type: physicochemical; design: key: RM = log[(1/Rf) − 1] from RP-TLC Rf values; conditions: methanol/water 70/30 v/v, 24 °C, average of at least five measurements
From the text: Lipophilicity is the key physicochemical parameter of a bioactive molecule, linking solubility, ligand-target binding interactions and membrane permeability with absorption, distribution, bioavailability, metabolism and elimination (ADME) and toxicological effects, crucial for its biological activity. The reverse phase thin layer chromatography (RPTLC) method was used for the experimental determination of the lipophilic character of the synthesized compounds as RM values (Table 2). Lipophilicity was also theoretically calculated as clog P values, using the CLOGP Program of Biobyte Corp. and as LPSP-lipophilicity values through Spartan v.5.1.3. (Wavefunction Inc., Irvine, CA, USA). According to the calculated clog P values, as well as LPSP, the most lipophilic compounds were the compounds 2c, 2d, 2e and 2g. This observation was supported by the RM values (with the exception of 2g).
Lipophilicity as RM values was determined through reversed phase TLC (RP-TLC) on silica gel plates impregnated with 5% (v/v) liquid paraffin in light petroleum ether. Methanol/water mixture (70/30, v/v) was used a mobile phase. Closed chromatography tanks saturated with the mobile phase at 24 °C were used for the development of the plates while the spots were detected under UV light. For the determination of RM values, five individual measurements of Rf values were recorded, and the RM values were derived from the equation RM = log [(1/Rf) − 1] [42, 43] (Table 2).

[3] = tested on: carrageenin-induced rat paw edema; test: Inhibition of the carrageenin-induced rat paw edema; assay type: in vivo, Fisher 344 rats; conditions: for CPE % (reduction in the rat paw edema induced by carrageenin): 0.0057 mmol/Kg body weight, intraperitoneally, 3.5 h after carrageenin; for anti-inflammatory activity in carrageenin-induced rat paw edema (in words): intraperitoneal administration
From the text: The carrageenin-induced rat paw edema assay was used, as a model of acute inflammation. Inflammation induced by carrageenan is acute, non-immune, well-researched, and highly reproducible, and is described as a biphasic event. Cardinal signs of inflammation—edema, hyperalgesia, and erythema, are developed immediately following subcutaneous injection, resulting from the action of pro-inflammatory agents: bradykinin, histamine, tachykinins, complement reactive oxygen and nitrogen species. It is known that NSAIDs act during the second phase of prostaglandin release, presenting weak activity in the first phase of histamine and serotonin release.
The animals (Fisher 344 rats), were housed under standard conditions, and received a diet of commercial food pellets and water ad libitum during the maintenance, but were entirely fasted during the experiment period. Both sexes were used, while pregnant females were excluded. Each group was composed of 6–15 animals. Our studies were in accordance with recognized guidelines on animal experimentation (guidelines for the care and use of laboratory animals published by the Greek Government 160/1991, based on EU regulations 86/609). Rats were kept in the Centre of the School of Veterinary Medicine (EL54 BIO42), Aristotle University of Thessaloniki, which is registered by the official state veterinary authorities (presidential degree 56/2013, in harmony with the European Directive 2010/63/EEC). The experimental protocols were approved by the Animal Ethics Committee of the Prefecture of Central Macedonia.
Carrageenin in water as an intradermal injection of 0.1 mL 2% was used for the induction of the edema in the right hind paw of the rats, according to the previously reported method. Animals were divided in five-membered groups and the tested compounds were suspended in water (0.0057 mmol/kg body weight), with a few drops of Tween 80, ground in a mortar before administered intraperitoneally simultaneously. The rats were euthanized 3.5 h after carrageenin injection. Comparison of the change in paw weight with that in control animals (treated with water) was expressed as a percent inhibition of the oedema CPE% values using indomethacin (IMA) as a reference compound. Values CPE% are the mean from two different experiments with a standard error of the mean less than 10% (Table 5). Student’s T test was applied.

| Compound | AAPH% 100 µM (anti-lipid peroxidation) [1] | melting point | RM (±SD) [2] | CPE % (reduction in the rat paw edema induced by carrageenin) [3] | anti-inflammatory activity in carrageenin-induced rat paw edema (in words) [3] |
| --- | --- | --- | --- | --- | --- |
| c1ccc(C2=NNC(c3cccc4ccccc34)C2)cc1 (centres unmarked) [Compound 2a, 5-(naphthalen-1-yl)-3-phenyl-4,5-dihydro-1H-pyrazole] | 89% | 45 to 47 °C | 0.22 ± 0.2 | no | inactive |
| CC(=O)n1nc(-c2ccccc2)cc1-c1ccc2[nH]ccc2c1 [Compound 2f, 1-(5-(1H-indol-5-yl)-3-phenyl-1H-pyrazol-1-yl)ethan-1-one] | 95% | 65 to 66 °C | −0.07 ± 0.01 | 30.0 * % | medium activity |
| CC(=O)n1nc(-c2ccc(Cl)cc2)cc1-c1cccc2ccccc12 [Compound 2g, 1-(3-(4-chlorophenyl)-5-(naphthalen-1-yl)-1H-pyrazol-1-yl)ethan-1-one] | 100% | 53 to 55 °C | −0.59 ± 0.05 | 33.0 * % | medium activity |
| Clc1ccc(C2=NNC(c3ccc4[nH]ccc4c3)C2)cc1 (centres unmarked) [Compound 2b, 5-(3-(4-chlorophenyl)-4,5-dihydro-1H-pyrazol-5-yl)-1H-indole] | 78% | 96 to 98 °C | 0.23 ± 0.03 | 27.0 * % | medium activity |
| Brc1ccc(COc2ccc(C3CC(c4ccccc4)=NN3)cc2)cc1 (centres unmarked) [Compound 2d, 5-(4-((4-bromobenzyl)oxy)phenyl)-3-phenyl-4,5-dihydro-1H-pyrazole] | 96% | 98 to 100 °C | 0.72 ± 0.06 | 63.0 ** % | highest anti-inflammatory activity |
| 5-(4-((4-bromobenzyl)oxy)phenyl)-3-(4-chlorophenyl)-4,5-dihydro-1H-pyrazole [Compound 2e] | 98% | – | 0.87 ± 0.07 | 56.0 ** % | highest anti-inflammatory activity |
| 1-(5-(4-((4-bromobenzyl)oxy)phenyl)-3-(thiophen-2-yl)-1H-pyrazol-1-yl)ethan-1-one [Compound 2c] | 100% | – | 0.68 ± 0.05 | 38.0 * % | medium activity |
| CC(=O)n1nc(-c2ccccc2)cc1-c1cccc(Oc2ccccc2)c1 [Compound 2h, 1-(5-(3-phenoxyphenyl)-3-phenyl-1H-pyrazol-1-yl)ethan-1-one] | 97% | 44 to 46 °C | 0.41 ± 0.02 | 16.0 * % | low activity |
